{"source": "patent US20240409576A1", "about": "“-ent-19-norprogesterone, compositions and uses thereof to treat traumatic brain injury (TBI), including concussions-” (Oragenics, Inc., priority 2015, published 2024)", "key": {"[1]": {"tested_on": "moderate-to-severe adult TBI", "conditions": "progesterone IV for 3 days after injury, cited from earlier work"}, "[2]": {"tested_on": "rat model of traumatic brain injury (mid-line cortical impact)", "type": "in vivo, Sprague-Dawley rats", "conditions": "48 h post-injury"}, "physchem": {"experiment": "physchem", "conditions": "aqueous with cosolvent or surfactant or cyclodextrin, thermodynamic from solid"}, "[3]": {"tested_on": "rat model of traumatic brain injury (mid-line cortical impact)", "type": "in vivo, Sprague-Dawley rats", "conditions": "for Motor function (neuroscore) compared to vehicle-treated rats: 48 h post-injury, 6 h, 24 h"}, "[4]": {"tested_on": "rat model of traumatic brain injury (mid-line cortical impact)", "type": "in vivo, Sprague-Dawley rats"}, "[5]": {"tested_on": "rat model of traumatic brain injury (mid-line cortical impact)", "type": "in vivo, Sprague-Dawley rats", "conditions": "48 h post-injury; for Time spent in thigmotaxia compared to vehicle-treated rats: trial not stated"}, "nasal mucosa of a rat": {"tested_on": "nasal mucosa of a rat", "experiment": "Intranasal penetration of Evans Blue labeled PRV002, atomizer vs pipette", "type": "in vivo", "conditions": "PRV002 labeled with Evans Blue dye, post-mortem evaluation", "protocol": "The goal of this study is to evaluate the motor and cognitive function of rats treated via intranasal administration with PRV-002, an analogue of the enantiomer of progesterone, following traumatic brain injury. Prior to the initiation of the treatment study, an anatomical evaluation is performed using PRV002 labeled with Evans Blue dye to determine the optimal intranasal/intracerebral penetration of compound using intranasal administration via a miniature atomizer vs. a manual pipette."}, "[6]": {"tested_on": "rat model of traumatic brain injury (mid-line cortical impact)", "type": "in vivo, Sprague-Dawley rats", "conditions": "48 h post-injury", "remark": "listed apart in the source"}, "[7]": {"tested_on": "rat model of traumatic brain injury (mid-line cortical impact)", "type": "in vivo, Sprague-Dawley rats", "remark": "listed apart in the source"}, "[8]": {"conditions": "under certain conditions; cited from earlier work"}, "[9]": {"conditions": "trial 1, intraperitoneal 4 mg/kg"}, "[10]": {"conditions": "trial 1, intraperitoneal 16 mg/kg"}, "[11]": {"conditions": "trial 2, intraperitoneal 4 mg/kg"}, "[12]": {"conditions": "trial 2, intraperitoneal 16 mg/kg"}, "[13]": {"conditions": "trial not given, intraperitoneal 4 mg/kg"}, "[14]": {"conditions": "trial not given, intraperitoneal 16 mg/kg"}, "[15]": {"conditions": "48 h post-injury, intranasal 0.05 mg/kg"}}, "note": "Entries after “also recorded” stand apart in the source; their conditions may differ. Read-outs that look alike come from different tables or passages of the source."}
{"smiles": "CC(=O)[C@H]1CC[C@H]2[C@@H]3CCC4=CC(=O)CC[C@]4(C)[C@H]3CC[C@]12C", "note": "[progesterone]", "values": [{"measurement": "Mortality rate", "setting": "[1]; control 30.4%", "value": 13.6, "unit": "%"}, {"measurement": "Serious adverse events", "setting": "[1]; data safety monitoring board", "value": "no serious adverse events attributable to progesterone treatment"}]}
{"smiles": "CC(=O)[C@@H]1CC[C@@H]2[C@H]3CCC4=CC(=O)CC[C@H]4[C@@H]3CC[C@]21C", "note": "(single isomer, unassigned; ent-19) [PRV-002, ent-19-norpregn-4-ene-3,20-dione]", "values": [{"measurement": "Time spent in thigmotaxia vs vehicle-treated injured rats", "setting": "[2]; [9]", "value": "vehicle-treated rats spend significantly more time in thigmotaxia"}, {"measurement": "Time spent in thigmotaxia vs vehicle-treated injured rats", "setting": "[2]; [10]", "value": "vehicle-treated rats spend significantly more time in thigmotaxia"}, {"measurement": "Time spent in thigmotaxia vs vehicle-treated injured rats", "setting": "[2]; [11]", "value": "vehicle-treated rats spend significantly more time in thigmotaxia"}, {"measurement": "Time spent in thigmotaxia vs vehicle-treated injured rats", "setting": "[2]; [12]", "value": "vehicle-treated rats spend significantly more time in thigmotaxia"}, {"measurement": "Time spent in thigmotaxia vs vehicle-treated injured rats", "setting": "[2]; [13]", "value": "ameliorated; also recorded: vehicle-treated injured rats spend significantly more time in thigmotaxia; also recorded: spend less time in the thigmotaxia area"}, {"measurement": "Time spent in thigmotaxia vs vehicle-treated injured rats", "setting": "[2]; [14]", "value": "ameliorated; also recorded: vehicle-treated injured rats spend significantly more time in thigmotaxia; also recorded: spend less time in the thigmotaxia area"}, {"measurement": "solubility", "setting": "physchem", "value": "~23", "unit": "mg/mL"}, {"measurement": "Group differences in neuroscore", "setting": "[3]; 24 h post-injury, intraperitoneal 4 mg/kg or 16 mg/kg, sham, vehicle and treated groups", "value": "failed to reveal significant differences; also recorded: no significant group differences"}, {"measurement": "Motor function (neuroscore) compared to vehicle-treated rats", "setting": "[3]; intraperitoneal 4 mg/kg at 15 min", "value": "significant improvement; also recorded: significantly better motor performance; also recorded: significant attenuation of TBI-induced motor function deficits; also recorded: significantly better motor function"}, {"measurement": "Motor function (neuroscore) compared to vehicle-treated rats", "setting": "[3]; intraperitoneal 16 mg/kg at 15 min", "value": "significant improvement; also recorded: significantly better motor performance; also recorded: significant attenuation of TBI-induced motor function deficits; also recorded: significantly better motor function"}, {"measurement": "Motor function (neuroscore) compared to vehicle-treated rats", "setting": "[4]; 24 h post-injury, intranasal 0.1 mg/kg", "value": "significantly improved motor function"}, {"measurement": "Motor function (neuroscore) compared to vehicle-treated rats", "setting": "[4]; 24 h post-injury, intranasal 0.1 mg/kg, listed as PRV002", "value": "significantly improved"}, {"measurement": "Motor function (neuroscore) compared to vehicle-treated rats", "setting": "[4]; 24 h post-injury, intranasal 4 mg/kg", "value": "significantly improved motor function"}, {"measurement": "Motor function (neuroscore) compared to vehicle-treated rats", "setting": "[4]; 24 h post-injury, intranasal 4 mg/kg, listed as PRV002", "value": "significantly improved"}, {"measurement": "Motor function (neuroscore) compared to vehicle-treated rats", "setting": "[4]; [15]", "value": "significantly better motor function"}, {"measurement": "Motor performance (neuroscore) compared to sham rats", "setting": "[4]; [15]", "value": "significantly worse performance"}, {"measurement": "Motor function (neuroscore) compared to vehicle-treated rats", "setting": "[4]; 48 h post-injury, intranasal 0.05 mg/kg, listed as PRV002", "value": "significantly improved motor function"}, {"measurement": "Motor function (neuroscore) compared to vehicle-treated rats", "setting": "[4]; 48 h post-injury, intranasal 0.1 mg/kg", "value": "significantly better motor function"}, {"measurement": "Motor function (neuroscore) compared to vehicle-treated rats", "setting": "[4]; 48 h post-injury, intranasal 0.1 mg/kg, listed as PRV002", "value": "significantly improved motor function"}, {"measurement": "Motor performance (neuroscore) compared to sham rats", "setting": "[4]; 48 h post-injury, intranasal 1 mg/kg", "value": "significantly worse performance"}, {"measurement": "Motor function (neuroscore) compared to vehicle-treated rats", "setting": "[4]; 48 h post-injury, intranasal 4 mg/kg", "value": "significantly better motor function"}, {"measurement": "Motor function (neuroscore) compared to vehicle-treated rats", "setting": "[4]; 48 h post-injury, intranasal 4 mg/kg, listed as PR V-002", "value": "significantly better motor function"}, {"measurement": "Motor function (neuroscore) compared to vehicle-treated rats", "setting": "[4]; 48 h post-injury, intranasal 4 mg/kg, listed as PRV002", "value": "significantly improved motor function"}, {"measurement": "Motor performance scores (neuroscore) compared to sham rats", "setting": "[4]; rat, in vivo", "value": "not significantly different from sham rats"}, {"measurement": "Group differences in time spent in thigmotaxia", "setting": "[5]; trial 1, intranasal 0.05, 0.1, 1, 4 mg/kg groups", "value": "no significant group differences are observed in time spent in thigmotaxia"}, {"measurement": "Time spent in thigmotaxia compared to vehicle-treated injured rats", "setting": "[5]; trial 2, intranasal 4 mg/kg", "value": "significantly less time in thigmotaxia"}, {"measurement": "Time spent in thigmotaxia compared to sham rats", "setting": "[5]; trial 2, intranasal 005 mg/kg", "value": "significantly more time in thigmotaxia"}, {"measurement": "Time spent in thigmotaxia compared to vehicle-treated rats", "setting": "[5]; intranasal 4 mg/kg", "value": "spent significantly less time in thigmotaxia"}, {"measurement": "Time spent in thigmotaxia compared to vehicle-treated rats", "setting": "[5]; intranasal 4 mg/kg, listed as PRV002", "value": "significantly reduced"}, {"measurement": "Nasal mucosal penetration, miniature atomizer vs manual pipette", "setting": "nasal mucosa of a rat", "value": "clear advantage of the miniature atomizer over the pipette technique"}, {"measurement": "Resultant solution", "setting": "30 mg in 1 ml Solution 1, mix time 60 min", "value": "Hazy"}, {"measurement": "Resultant solution", "setting": "+0.1 ml Solution 1, ~1.1 ml, mix time 120 min", "value": "Hazy"}, {"measurement": "Resultant solution", "setting": "+0.1 ml Solution 1, ~1.2 ml, mix O/N", "value": "Hazy to Clear"}, {"measurement": "Morris water maze memory score (cognitive deficits) vs vehicle-treated injured rats", "setting": "[6]; [9]", "value": "significantly attenuated TBI-related cognitive deficits"}, {"measurement": "Morris water maze memory score (cognitive deficits) vs vehicle-treated injured rats", "setting": "[6]; [10]", "value": "significantly attenuated TBI-related cognitive deficits"}, {"measurement": "Morris water maze memory score (cognitive deficits) vs vehicle-treated injured rats", "setting": "[6]; [11]", "value": "significantly attenuated TBI-related cognitive deficits"}, {"measurement": "Morris water maze memory score (cognitive deficits) vs vehicle-treated injured rats", "setting": "[6]; [12]", "value": "significantly attenuated TBI-related cognitive deficits"}, {"measurement": "Morris water maze memory score (cognitive deficits) vs vehicle-treated injured rats", "setting": "[6]; [13]", "value": "ameliorated; also recorded: vehicle-treated injured rats have significantly worse cognitive function; also recorded: amelioration of TBI-induced cognitive deficits"}, {"measurement": "Morris water maze memory score (cognitive deficits) vs vehicle-treated injured rats", "setting": "[6]; [14]", "value": "ameliorated; also recorded: vehicle-treated injured rats have significantly worse cognitive function; also recorded: amelioration of TBI-induced cognitive deficits"}, {"measurement": "Cognitive function (post-traumatic memory)", "setting": "[7]; 48 h post-injury/treatment, intranasal 4 mg/kg, trial not stated", "value": "significant improvement in cognitive function"}, {"measurement": "Morris water maze memory score (cognitive performance) compared to all other groups", "setting": "[7]; rat, in vivo", "value": "all groups have significantly lower memory scores than PRV-002 4 mg/kg-treated rats"}, {"measurement": "Morris water maze memory score (cognitive performance) compared to all other groups", "setting": "[7]; trial 1, 48 h post-injury, intranasal 4 mg/kg", "value": "significantly better cognitive performance"}, {"measurement": "Group differences in cognitive performance (Morris water maze memory score)", "setting": "[7]; trial 2, 48 h post-injury, intranasal 0.05, 0.1, 1, 4 mg/kg groups", "value": "significant group differences in cognitive performance are not observed"}]}
{"smiles": "CC(=O)[C@@H]1CC[C@@H]2[C@H]3CCC4=CC(=O)CC[C@@]4(C)[C@@H]3CC[C@]21C", "note": "[ent-Progesterone, ent-progesterone]", "values": [{"measurement": "Antioxidant activity relative to racemate", "setting": "[8]", "value": "three times the antioxidant activity of racemate"}]}
